One may read the EC50 as the concentration needed to bring the measured effect to its halfway point.

These results are taken from US20210038681A1, “PHARMACEUTICAL COMPOSITION FOR TREATING VIRAL HEPATITIS C” (priority 2018, published 2021).

SMILES strings stand for the structures. Read-outs that look alike come from different tables or passages of the source.

Experiment [1] has as its system Wild-type HCV 1b replicon. Format: cell-based. The note with it: Hepatitis C virus, read-out: Mean EC50 (nM).
Experiment [2] deals with HCV 1a Wild-type replicon. The experiment can be described thus: microbe, parasite or virus in culture. The conditions noted are these: Hepatitis C virus, Huh-7, read-out: Mean EC50 (nM) ± SD.
For experiment [3], the system named is HCV 1a Wild-type replicon. The note with it: read-out: Mean EC50 (nM) ± SD; HCV 1a variant Wild-type; Huh7-Lunet cells.

Regarding `CC(C)(C)OC(=O)N[C@H]1CCCCC/C=C\[C@@H]2C[C@@]2(C(=O)NS(=O)(=O)C2CC2)NC(=O)[C@@H]2C[C@@H](OC(=O)N3Cc4cccc(F)c4C3)CN2C1=O` [ASC08, Danoprevir], the results for the half-maximal effective concentration (EC50) in experiment [1] and in experiment [2] were 0.7 nM and 5.4 nM, respectively.
Turning to `C[C@@]1(F)[C@H](O)[C@@H](CO)O[C@H]1n1ccc(N)nc1=O` [PSI-6130], the EC50 in experiment [3] was determined as 770 nM.
As to `CNC(=O)c1c(-c2ccc(F)cc2)oc2cc(N(CCO)S(C)(=O)=O)c(C3CC3)cc12` [HCV-796], in experiment [2], the concentration for a half-maximal effect (EC50) turned out to be 11.8 nM.
